From publication PMC8746705, “Comparison of Experimental Strategies to Study L-Type Amino Acid Transporter 1 (LAT1) Utilization by Ligands” (Molecules, 2021)
Like-named read-outs stand apart in the source and are kept apart here.

How the values were obtained:
LAT1 [1] = biological target: T1, LAT1 (Mus musculus, UniProt Q9Z127); experiment: Inhibition type of [14C]-L-Leu uptake (Hanes-Woolf plots) in BV2 cells; assay type: cell-based; details: for Vmax of [14C]-L-Leu uptake: 0.010–0.20 µM [14C]-L-Leu in the presence of the compound at its IC50, mean ± SD, n = 3–4; for IC50: Table 2, compound concentration used in the inhibition type study, corresponding to IC50 of [14C]-L-Leu uptake; for Inhibition Type: of [14C]-L-Leu uptake, concluded from Km and Vmax
T1 sequence (Q9Z127 whole entry): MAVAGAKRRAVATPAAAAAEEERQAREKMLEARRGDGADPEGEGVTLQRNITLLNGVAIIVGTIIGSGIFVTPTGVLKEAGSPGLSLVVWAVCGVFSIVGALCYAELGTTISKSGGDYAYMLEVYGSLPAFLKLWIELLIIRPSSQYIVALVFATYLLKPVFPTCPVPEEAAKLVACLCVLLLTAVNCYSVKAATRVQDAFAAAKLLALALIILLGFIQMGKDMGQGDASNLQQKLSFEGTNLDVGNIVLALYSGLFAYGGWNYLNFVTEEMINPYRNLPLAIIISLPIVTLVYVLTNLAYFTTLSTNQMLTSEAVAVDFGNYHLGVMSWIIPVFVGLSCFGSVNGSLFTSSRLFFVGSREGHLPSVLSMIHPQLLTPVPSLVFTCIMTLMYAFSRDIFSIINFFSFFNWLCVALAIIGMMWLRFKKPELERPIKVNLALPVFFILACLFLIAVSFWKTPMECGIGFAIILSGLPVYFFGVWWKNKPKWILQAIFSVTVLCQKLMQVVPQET
T1 sequence (P10852 whole entry partner): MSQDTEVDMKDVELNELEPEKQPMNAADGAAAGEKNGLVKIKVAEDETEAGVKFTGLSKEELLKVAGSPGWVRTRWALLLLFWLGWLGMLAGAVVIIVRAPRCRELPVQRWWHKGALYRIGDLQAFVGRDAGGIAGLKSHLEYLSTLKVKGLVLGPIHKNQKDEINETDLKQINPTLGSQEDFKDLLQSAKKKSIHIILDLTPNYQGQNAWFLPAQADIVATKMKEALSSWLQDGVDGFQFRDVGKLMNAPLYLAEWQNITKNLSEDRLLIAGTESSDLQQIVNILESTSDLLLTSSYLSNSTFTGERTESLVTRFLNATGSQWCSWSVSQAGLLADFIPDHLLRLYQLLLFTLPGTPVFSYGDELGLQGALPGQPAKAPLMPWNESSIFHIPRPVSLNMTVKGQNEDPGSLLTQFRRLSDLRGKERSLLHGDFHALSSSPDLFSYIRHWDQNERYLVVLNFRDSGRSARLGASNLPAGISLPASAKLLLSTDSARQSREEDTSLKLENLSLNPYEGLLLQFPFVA
Description: (§1) After removal of the culture medium, the BV2 cells were carefully washed with pre-warmed HBSS (Hank’s balanced salt solution) containing 125.0 mM choline chloride, 4.8 mM KCl, 1.2 mM MgSO4, 1.2 mM KH2PO4, 1.3 mM CaCl2, 5.6 mM glucose, and 25.0 mM HEPES (pH 7.4 adjusted with 1 M NaOH). Pre-incubation was done with 500 μL of pre-warmed HBSS at 37 °C for 10 min before adding substrates (250 μL in HBSS) for the uptake experiments.
To evaluate the inhibition type of studied compounds, the BV2 cells were incubated with 0.010–0.20 μM [^14C]-L-leucine together with the studied compound. The concentration of compounds was selected according to the compound-specific IC50 values. The experiment was then carried out as described for the [^14C]-L-leucine uptake above and the radioactivity was measured by liquid scintillation counting. Hanes-Woolf plots were created by setting the ratio of initial substrate concentration to the reaction velocity ([S]/v) against [^14C]-L-leucine concentration (µM). The linear regression was used to calculate Km value (negative value of x-intercept) and Vmax value (1/slope) for [^14C]-L-leucine.

LAT1 [2] = biological target: T1, LAT1; experiment: LAT1 function followed between cell passages with [14C]-L-leucine; details: BV2 cells, passages 8–15
LAT1 [3] = biological target: T1, LAT1; experiment: Concentration-dependent cellular uptake into BV2 cells, Eadie–Hofstee analysis, Transport Type 1 (LAT1); assay type: cell-based
Description: For the concentration-dependent cellular uptake experiments, the BV2 cells on 24-well plates were incubated with studied compounds (1–200 μM) in pre-warmed HBSS buffer (250 μL) at 37 °C for 30 min. The experiment was then carried out as described for the time-dependent uptake above and the concentration of studied compounds in the cell lysate was analyzed by the LC-MS/MS methods described above and the results were normalized to the total protein concentration. The distinct transport mechanisms were separated from the Michaelis-Menten kinetics by using Eadie–Hofstee plot.
(§2) The studied compounds (1–15) were analyzed by using Agilent 1200 Series Rapid Resolution LC System together with an Agilent 6410 Triple Quadrupole Mass Spectrometer equipped with an electrospray ionization source (Agilent Technologies, Santa Clara, CA, USA). The chromatographic separations of analytes were achieved by using a reversed-phase Zobrax SB-C18 column (50 mm × 2.1 mm, 1.8 μm; Agilent Technologies, Santa Clara, CA, USA) by eluting the samples with 0.1% formic acid in water (A) and 0.1% formic in ACN (B). Labetalol and diclofenac were used as internal standards (ISTD) for the prodrugs and parent drugs, respectively. The transitions used for the quantification at the positive ion mode and chromatographic conditions of each compound and their parent drugs are listed in Table S1. The methods of compounds 1–11 have been reported earlier, while the methods of compounds 12–15 are reported herein for the first time.

LAT1 [4] = biological target: T1, LAT1; set-up: method as in earlier work; details: BV2 cells; probe [14C]-L-Leu; mean ± SD; published earlier; ref [31] or [33]; read-out: IC50 of [14C]-L-Leu uptake; cited from earlier work
[5] = Time-dependent cellular uptake of compounds into BV2 cells (LC-MS/MS); assay type: cell-based, mouse; details: mouse, BV2 microglia cells, 100 µM compound, 1–60 min, mean ± SD, n = 3, read-out: T½ of cellular uptake
Description: (§3) For the time-dependent cellular uptake experiments, the BV2 cells on 24-well plates were incubated with studied compounds (100 μM) in a pre-warmed HBSS buffer (250 μL) at 37 °C for 1–60 min. Subsequently, the cells were washed three times with an ice-cold HBSS and lysed with 250 μL of NaOH (0.1 M) for 60 min. The lysates were diluted with acetonitrile (ACN) including the selected internal standard (diclofenac to all compounds) with a ratio of 1:3 and centrifuged at 10,000× g for 10 min. The samples were analyzed by the liquid chromatography-tandem mass spectrometric (LC-MS/MS) methods as described below. The concentrations of each compound in cell lysates were calculated from the standard curve that was prepared by spiking known amounts of compounds to ACN including the selected internal standard and then normalized with protein concentration. The protein concentrations on each plate were determined as a mean of three samples by Bio-Rad Protein Assay, based on the Bradford dye-binding method, using bovine serum albumin (BSA) as a standard protein and measuring the absorbance (595 nm) by multiplate reader (EnVision, Perkin Elmer, Inc., Waltham, MA, USA).
as §2

[6] = test system: immortalized mouse microglia (BV2); experiment: as above; assay type: cell-based; details: 100 µM compound, 1–60 min, mean ± SD, n = 3
Description: as §3, §2

[7] = Stability / bioconversion of prodrugs to parent drugs (biological media, 0.1 M NaOH cell lysing); assay type: in vitro ADME; details: cell lysate samples for LC-MS/MS (Table S1 footnote)
Description: LAT1-utilizing prodrugs 1–15 (Figure 1) were selected for this study based on their ability to utilize LAT1 expressed in cells used in our previous studies. Therefore, the syntheses of these compounds are not described herein as they have been reported earlier. These compounds include prodrugs of an investigational immunosuppressive agent, perforin inhibitor (1), non-steroidal anti-inflammatory drugs (NSAIDs), ketoprofen (2–4, 14), salicylic acid (8), flurbiprofen (9 and 12), ibuprofen (10 and 13) and naproxen (11 and 15), as well as the polyphenolic antioxidant, ferulic acid (5–7). […] In addition, all NSAID prodrugs (compounds 2–4, 9–15) were prepared from their pure S-enantiomers. Prodrugs of ferulic acid (compounds 5–7) were mixtures of E- and […], which were interconvertible over time. […] Therefore, both prodrug and the released parent drug proportions were quantified and taken into account when calculating concentrations transported into the cells.
1. LC-MS/MS ionization parameters of compounds 1-15
Table S1. Ionization parameters for the LC-MS/MS methods of the studied compounds.
Precursor Product Fragmentor Collision Flow rate Gradient LLOQ
Compound ion ion(s) Voltage (V) Energy (mL/min) (A:B) (nM) […]
perforin inhibitor 1a and therefore, their transitions with a positive ion mode are reported only as KPF or as a prodrug and parent drug in parentheses. […]
drugs (ferulic acid (FA), flurbiprofen (FLB), ibuprofen (IBU), and naproxen (NPX), respectively), whose transitions with a negative ion mode are reported below the studied LAT1 -utilizing compounds i n parentheses.

LAT1 [8] = biological target: T1, LAT1; experiment: Cellular uptake of compounds in the presence of LAT1-inhibitor (KMH-233); assay type: cell-based; details: 100 µM compound, 100 µM KMH-233, 30 min, BV2
Description: The competitive uptake in the presence of LAT1-inhibitor (KMH-233) was carried out as described above with HBSS buffer solution containing 100 µM of the studied compounds. The cells were pre-incubated with 100 µM LAT1-inhibitor for 10 min and the incubation mixture was removed before adding the studied compound and LAT1-inhibitor on the cells. The competitive uptake (30 min) with the inhibitor was then carried out as the normal uptake described above. The amounts of studied compounds were analyzed by the LC-MS method and calculated from the spiked standard curve and normalized with the protein concentrations.

LAT1 [9] = biological target: T1, LAT1; experiment: Cis-inhibition of radiolabelled LAT1-probe substrate uptake into BV2 cells; assay type: cell-based; details: 5 min, mean ± SD
Description: as §1
The ability of compounds 1–15 to inhibit the uptake of a known LAT1 substrate [^14C]-L-leucine was then evaluated by incubating the cells at 37 °C for 5 min in uptake buffer pH 7.4 (250 μL) containing 0.2 µCi/mL of [^14C]-L-leucine, or 2 µCi/mL of [^3H]-L-methionine, [^3H]-L-tryptophan or [^3H]-L-kynurenine (PerkinElmer, Waltham, MA, USA) and 0.1–1000 μM of the studied compound (or HBSS as blank). After incubation, the uptake was stopped by adding 250 µL of ice-cold HBSS, and the cells were washed two times with ice-cold HBSS. The cells were then lysed with 500 μL of NaOH (0.1 M) for 60 min and the lysate was mixed with 3.5 mL of Emulsifier safe cocktail (Ultima Gold, PerkinElmer, Waltham, MA, USA). The radioactivity in the cells was measured by liquid scintillation counting (MicroBeta^2 counter, PerkinElmer Waltham, MA, USA). Half of the maximum inhibitory concentration (IC50) values were calculated by nonlinear regression analysis (fitting the curve to log (concentration) vs. remaining normalized […]).

[10] = probe [3H]-L-Kynu, n = 3–4, read-out: IC50 of [3H]-L-Kynu uptake
[11] = probe [3H]-L-Met, n = 3–4, read-out: IC50 of [3H]-L-Met uptake
[12] = probe [3H]-L-Trp, n = 3–4, read-out: IC50 of [3H]-L-Trp uptake
[13] = 1–200 µM, 30 min, BV2, Eadie–Hofstee, mean ± SD, n = 3

Row | Vmax of [14C]-L-Leu uptake (control) (LAT1 [1]; 0.010–0.20 µM [14C]-L-Leu alone, no compound, BV2) [nmol/min/mg] | Km (LAT1 [1]; 0.010–0.20 µM [14C]-L-Leu alone, no compound, BV2, read-out: Km of [14C]-L-Leu uptake (control)) [µM] | Vmax of [14C]-L-leucine uptake (LAT1 [2]) [nmol/min/mg protein] | Km (LAT1 [2]; read-out: Km of [14C]-L-leucine uptake) [µM] | Cellular uptake (LAT1 [3]; BV2 cells) | Vmax of [14C]-L-Leu uptake (LAT1 [1]; BV2) [nmol/min/mg] | IC50 (LAT1 [1]) [µM] | Inhibition Type (LAT1 [1]; BV2) | half-life at 100 μM [5] [min] | Conversion to parent drug in the analysed samples [7] | Cellular uptake in the presence of LAT1-inhibitor (LAT1 [8]) | IC50 (LAT1 [9]; [10]) [µM] | IC50 (LAT1 [9]; [11]) [µM] | IC50 (LAT1 [9]; [12]) [µM] | Km (LAT1 [3]; [13]) [µM] | Transport Type 1 (LAT1) Vmax (LAT1 [3]; [13]) [pmol/mg/min] | Structure (SMILES) | IC50 (LAT1 [4]) [µM] | Max. cellular uptake [6]
1 | 3.403 ± 0.055 | 0.115 ± 0.007 | 0.84 ± 0.12 | 85.8 ± 19.4 |  |  |  |  |  |  |  |  |  |  |  |  | CC(C)C[C@H](N)C(=O)O [L-Leu (Crtl), L-leucine, reference compound] |  | 
2 |  |  |  |  | highest cellular uptake | 2.622 ± 0.268 | 53 | Mixed type | 2.2 ± 0.62 | fully converted into ketoprofen | only reductive trends were seen | 91.5 ± 1.2 | 32 ± 1.4 | 37.6 ± 1.7 |  |  | C[C@H](C(=O)OCc1ccc(C[C@@H](N)C(=O)O)cc1)c1cccc(C(=O)c2ccccc2)c1 [Compound 14] | 52.9 ± 1.3 | 10.20 ± 0.61 nmol/mg of protein
3 |  |  |  |  |  | 2.186 ± 0.231 | 5 | Mixed type | 3.6 ± 1.47 | partly converted to their parent | inhibited significantly | 9.7 ± 1.2 | 9.8 ± 1.4 | 36.3 ± 1.2 | 8.2 ± 1.8 | 63 ± 8 | CC(C)Cc1ccc([C@H](C)C(=O)Oc2cccc(C[C@H](N)C(=O)O)c2)cc1 [Compound 13] | 5.3 ± 1.2 | 25.90 ± 2.41 nmol/mg of protein
